Columns and labels:
[1] = target: recombinant human DPPI (Cathepsin C) (Homo sapiens (Human), UniProt P53634); experiment: Inhibition of human DPPI (Cathepsin C); format: biochemical; conditions: substrate Gly-Arg-AMC
Procedure, shortened: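 Recombinant human DPPI in MES buffer pH 6.0 (5 mM DTT, 0.1% BSA); fluorogenic substrate at 50 μM final, 30 min at room temperature, stopped with 1 μM Gly-Phe-DMK. Background-subtracted fluorescence expressed as percent of vehicle control; IC50 derived.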

[2] = Determination of metabolic stability with human liver microsomes; conditions: human, pooled human liver microsomes, pH 7.6
[3] = target: recombinant human Cathepsin K (Homo sapiens (Human), UniProt P43235); experiment: Inhibition of human Cathepsin K; format: biochemical; conditions: substrate Z-Gly-Pro-Arg-AMC
Procedure, shortened: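 Proenzyme activated in pH 3.5 sodium acetate for 30 min at room temperature. Enzyme (2 ng/μL final) preincubated 10 min with compound (0.1 nM–100 μM, 1% DMSO) in pH 5.5 acetate/EDTA/L-cysteine buffer, then reacted 60 min at room temperature with Z-Gly-Pro-Arg-AMC. Stopped with 1 μM E64; fluorescence Ex 360/Em 460 nm; IC50 from background-subtracted percent of vehicle control.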

Chain of recombinant human Cathepsin K (P43235 115-329): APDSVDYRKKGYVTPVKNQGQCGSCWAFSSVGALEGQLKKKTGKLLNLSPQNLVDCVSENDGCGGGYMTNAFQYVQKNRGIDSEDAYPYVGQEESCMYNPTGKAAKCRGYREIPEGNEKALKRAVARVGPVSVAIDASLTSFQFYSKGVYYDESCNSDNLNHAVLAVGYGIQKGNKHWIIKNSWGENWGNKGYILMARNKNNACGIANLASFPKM
Chain of recombinant human DPPI (Cathepsin C) (P53634 231-394): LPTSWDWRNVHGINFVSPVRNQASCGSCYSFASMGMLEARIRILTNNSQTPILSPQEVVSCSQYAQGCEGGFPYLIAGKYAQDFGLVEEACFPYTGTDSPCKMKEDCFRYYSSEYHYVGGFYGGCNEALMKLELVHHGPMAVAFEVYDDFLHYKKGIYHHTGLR
Chain of recombinant human DPPI (Cathepsin C) (P53634 395-463): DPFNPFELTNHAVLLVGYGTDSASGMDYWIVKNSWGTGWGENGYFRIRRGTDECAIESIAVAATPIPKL
Chain of recombinant human DPPI (Cathepsin C) (P53634 25-134): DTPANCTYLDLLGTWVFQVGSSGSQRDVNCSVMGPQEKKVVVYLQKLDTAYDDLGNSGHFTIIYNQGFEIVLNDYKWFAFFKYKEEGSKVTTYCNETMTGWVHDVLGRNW

Compound | IC50 [1] | half-life at 1 μM [2] | IC50 [3]
N#CC(Cc1ccc(-c2ccc3c(c2)NC(=O)C3)cc1F)NC(=O)[C@H]1N[C@@H]2CC[C@H]1C2 (stereo partly drawn) [Example 22] | 0.0033 µM | > 2.17 h | 3.2 µM
N#CC(Cc1ccc(-c2cnn(C3CCOCC3)c2)cc1F)NC(=O)[C@H]1N[C@@H]2CC[C@H]1C2 (stereo partly drawn) [Example 116] | 0.0391 µM | > 2.17 h | 7.7 µM
Cn1cc(-c2ccc(C[C@@H](C#N)NC(=O)[C@H]3N[C@@H]4CC[C@H]3C4)c(F)c2)ccc1=O [Example 254] | 0.002 µM | > 2.17 h | 4.5 µM
N#CC(Cc1ccc(-c2ncc(Cl)cn2)cc1F)NC(=O)[C@H]1N[C@@H]2CC[C@H]1C2 (stereo partly drawn) [Example 98] | 0.0203 µM | > 2.17 h | 8.4 µM
N#C[C@H](Cc1ccc(-c2ccc(C(=O)N3CCN4CCOCC4C3)o2)cc1F)NC(=O)[C@H]1N[C@@H]2CC[C@H]1C2 (stereo partly drawn) [Example 238] | 0.0143 µM | 1.83 h | 9.3 µM
CN1CCC2(CC1)CC(c1ccc(C[C@@H](C#N)NC(=O)[C@H]3N[C@@H]4CC[C@H]3C4)c(F)c1)C2 [Example 358] | 0.022 µM | > 2.17 h | 9.6 µM
N#C[C@H](Cc1cc2c(=O)[nH]c3ccccc3c2cc1F)NC(=O)[C@H]1N[C@@H]2CC[C@H]1C2 [Example 322] | 0.0008 µM | > 2.17 h | 1.1 µM
N#C[C@H](Cc1ccc(-c2cnn(CC3CCOCC3)c2)c(F)c1F)NC(=O)[C@H]1N[C@@H]2CC[C@H]1C2 [Example 218] | 0.0189 µM | > 2.17 h | 26 µM
N#CC(Cc1cc2c(=O)[nH]c3cc(F)ccc3c2cc1F)NC(=O)[C@H]1N[C@@H]2CC[C@H]1C2 (stereo partly drawn) [Example 293] | 0.0013 µM | > 2.17 h | 2.7 µM
COCCn1cc(-c2ccc(C[C@@H](C#N)NC(=O)[C@H]3N[C@@H]4CC[C@H]3C4)c(F)c2)cn1 [Example 44] |  | > 2.17 h | 4 µM
N#C[C@H](Cc1ccc(N2CCOCC2)cc1F)NC(=O)[C@H]1N[C@@H]2CC[C@H]1C2 [Example 205] | 0.0259 µM | > 2.17 h | 
N#C[C@H](Cc1ccc(-c2cnc3n2CCC3)cc1F)NC(=O)[C@H]1N[C@@H]2CC[C@H]1C2 [Example 221] | 0.0037 µM | > 2.17 h | 
CN(C)CCn1cc(-c2ccc(C[C@@H](C#N)NC(=O)[C@H]3N[C@@H]4CC[C@H]3C4)c(F)c2)ccc1=O [Example 342] | 0.0013 µM | > 2.17 h | 
CS(=O)(=O)c1cc(-c2ccc(C[C@@H](C#N)NC(=O)[C@H]3N[C@@H]4CC[C@H]3C4)c(F)c2F)ccc1C#N [Example 183] | 0.0088 µM | > 2.17 h | 
N#C[C@H](Cc1ccc(N2CCN(C3CCOC3)CC2)cc1F)NC(=O)[C@H]1N[C@@H]2CC[C@H]1C2 (stereo partly drawn) [Example 331] |  | > 2 h | 1.5 µM
N#C[C@H](Cc1ccc(-c2cnc3cnccn23)cc1F)NC(=O)[C@H]1N[C@@H]2CC[C@H]1C2 [Example 194] | 0.0133 µM | 1.42 h | 
N#Cc1ccc2c(c1)[nH]c(=O)c1cc(CC(C#N)NC(=O)[C@H]3N[C@@H]4CC[C@H]3C4)c(F)cc12 (stereo partly drawn) [Example 292] | 0.0009 µM | 1.57 h | 
CS(=O)(=O)c1ccn(-c2ccc(C[C@@H](C#N)NC(=O)[C@H]3N[C@@H]4CC[C@H]3C4)c(F)c2)c(=O)c1 [Example 266] | 0.0437 µM | > 2.17 h | 
N#C[C@H](Cc1ccc(-n2cc(C(F)(F)F)cn2)cc1F)NC(=O)[C@H]1N[C@@H]2CC[C@H]1C2 [Example 285] |  | > 2.17 h | 8.7 µM
CNC(=O)Cc1ccc2[nH]c(=O)c3cc(CC(C#N)NC(=O)[C@H]4N[C@@H]5CC[C@H]4C5)ccc3c2c1 (stereo partly drawn) [Example 306] | 0.007 µM | > 2.17 h | 
CS(=O)(=O)c1ccc2[nH]c(=O)c3cc(CC(C#N)NC(=O)[C@H]4N[C@@H]5CC[C@H]4C5)ccc3c2c1 (stereo partly drawn) [Example 313] | 0.0136 µM | > 2.17 h | 
COCCn1cc(-c2ccc(CC(C#N)NC(=O)[C@H]3N[C@@H]4CC[C@H]3C4)c(F)c2)cn1 (stereo partly drawn) [Example 97] |  | > 2.17 h | 7.9 µM
N#CC(Cc1ccc2c(c1)c(=O)[nH]c1ccc(N)cc12)NC(=O)[C@H]1N[C@@H]2CC[C@H]1C2 (stereo partly drawn) [Example 314] | 0.014 µM | > 2.17 h | 
CN1Cc2cc(-c3ccc(C[C@@H](C#N)NC(=O)[C@H]4N[C@@H]5CC[C@H]4C5)c(F)c3)ccc2S1(=O)=O [Example 169] |  | > 2.17 h | 5.2 µM

Now from value to compound:

IC50 [1] | half-life at 1 μM [2] | IC50 [3] | Compound
0.0133 µM | > 2.17 h | 5.1 µM | N#CC(Cc1ccc(-c2ccc(C(N)=O)cc2)cc1F)NC(=O)[C@H]1N[C@@H]2CC[C@H]1C2 (stereo partly drawn) [Example 83]
0.0016 µM | > 2.17 h | 3.3 µM | CS(=O)(=O)c1ccc(-c2ccc(C[C@@H](C#N)NC(=O)[C@H]3N[C@@H]4CC[C@H]3C4)c(F)c2)cc1C#N [Example 159]
0.0211 µM | > 2.17 h | 2.9 µM | N#C[C@H](Cc1ccc(-n2cc(CCN3CCOCC3)nn2)cc1F)NC(=O)[C@H]1N[C@@H]2CC[C@H]1C2 [Example 99]
0.0034 µM | > 2.17 h | 6.3 µM | N#C[C@H](Cc1ccc(-c2ccc(C(N)=O)o2)cc1F)NC(=O)[C@H]1N[C@@H]2CC[C@H]1C2 [Example 167]
0.0009 µM | > 2.17 h | 7.4 µM | N#C[C@H](Cc1ccc(-c2csc(C(N)=O)c2)cc1F)NC(=O)[C@H]1N[C@@H]2CC[C@H]1C2 [Example 157]
0.0029 µM | > 2.17 h | > 30 µM | N#CC(Cc1ccc2c(c1)c(=O)[nH]c1c(F)c(F)c(F)cc12)NC(=O)[C@H]1N[C@@H]2CC[C@H]1C2 (stereo partly drawn) [Example 296]
0.0184 µM | > 2.17 h | 9.2 µM | CN(C)CC1CCCN(c2ccc(C[C@@H](C#N)NC(=O)[C@H]3N[C@@H]4CC[C@H]3C4)c(F)c2)C1 (stereo partly drawn) [Example 345]
0.0079 µM | > 2.17 h | 4.1 µM | N#CC(Cc1ccc(-c2cccc(C(N)=O)c2)cc1F)NC(=O)[C@H]1N[C@@H]2CC[C@H]1C2 (stereo partly drawn) [Example 53]
0.011 µM | > 2.17 h | 5.7 µM | CNc1nc2cc(-c3ccc(C[C@@H](C#N)NC(=O)[C@H]4N[C@@H]5CC[C@H]4C5)c(F)c3)ccc2n1C [Example 253]
0.0021 µM | > 2.17 h | 4.7 µM | N#CC(Cc1cc2c(=O)[nH]c3ccc(F)cc3c2cc1F)NC(=O)[C@H]1N[C@@H]2CC[C@H]1C2 (stereo partly drawn) [Example 295]
0.0043 µM | 1.5 h | 7.3 µM | CN1C(=O)Cc2ccc(-c3cc(F)c(C[C@@H](C#N)NC(=O)[C@H]4N[C@@H]5CC[C@H]4C5)cc3F)cc21 [Example 31]
0.0072 µM | 1.4 h | 3.4 µM | N#C[C@H](Cc1ccc(-n2cc(COc3ccccc3)nn2)cc1F)NC(=O)[C@H]1N[C@@H]2CC[C@H]1C2 [Example 47]
0.0094 µM | > 2.17 h | 1.7 µM | CO[C@@H]1C[C@@H]2CN(c3ccc(C[C@@H](C#N)NC(=O)[C@H]4N[C@@H]5CC[C@H]4C5)c(F)c3)CCN2C1 [Example 269]
0.0072 µM | > 2.17 h |  | N#Cc1cc(F)c2[nH]c(=O)c3cc(CC(C#N)NC(=O)[C@H]4N[C@@H]5CC[C@H]4C5)ccc3c2c1 (stereo partly drawn) [Example 307]
 | > 2.17 h | 3.6 µM | N#C[C@H](Cc1ccc([C@@H]2CCN3CCOC[C@H]3C2)cc1F)NC(=O)[C@H]1N[C@@H]2CC[C@H]1C2 [Example 283]
0.0033 µM | 1.57 h |  | CC1(C)OC(=O)c2cc(-c3ccc(C[C@@H](C#N)NC(=O)[C@H]4N[C@@H]5CC[C@H]4C5)c(F)c3)ccc21 [Example 166]
0.0151 µM | > 2.17 h |  | CC1CN(c2ccc(C[C@@H](C#N)NC(=O)[C@H]3N[C@@H]4CC[C@H]3C4)c(F)c2)C(C)CN1C (stereo partly drawn) [Example 196]
0.0025 µM | 1.83 h |  | CN1CCN(C(=O)c2ccc(-c3ccc(C[C@@H](C#N)NC(=O)[C@H]4N[C@@H]5CC[C@H]4C5)c(F)c3)o2)CC1 [Example 289]
0.005 µM | 1.38 h |  | N#C[C@H](Cc1ccc(-c2cnn(-c3ccccc3)c2)cc1F)NC(=O)[C@H]1N[C@@H]2CC[C@H]1C2 [Example 171]
0.0079 µM | > 2.17 h |  | N#C[C@H](Cc1ccc(-c2ccc(=O)[nH]c2)cc1F)NC(=O)[C@H]1N[C@@H]2CC[C@H]1C2 [Example 258]
0.0088 µM | > 2.17 h |  | CCNC(=O)c1ccc(-c2ccc(C[C@@H](C#N)NC(=O)[C@H]3N[C@@H]4CC[C@H]3C4)c(F)c2)cc1 [Example 184]
0.0059 µM | > 2.17 h |  | N#CC(Cc1ccc2c(c1)c(=O)[nH]c1c(F)cc(C(N)=O)cc12)NC(=O)[C@H]1N[C@@H]2CC[C@H]1C2 (stereo partly drawn) [Example 291]
0.0077 µM | > 2 h |  | N#C[C@H](Cc1ccc(-n2cccn2)cc1F)NC(=O)[C@H]1N[C@@H]2CC[C@H]1C2 [Example 180]
0.003 µM | > 2.17 h |  | CN(C)CCCN1C(=O)Cc2ccc(-c3ccc(C[C@@H](C#N)NC(=O)[C@H]4N[C@@H]5CC[C@H]4C5)c(F)c3)cc21 [Example 277]
0.0094 µM | > 2.17 h |  | N#CC(Cc1ccc2c(c1)c(=O)[nH]c1c(F)cc(F)cc12)NC(=O)[C@H]1N[C@@H]2CC[C@H]1C2 (stereo partly drawn) [Example 310]

— patent US8987249B2, “Substituted 2-Aza-bicyclo[2.2.1]heptane-3-carboxylic acid (benzyl-cyano-methyl)-amides inhibitors of Cathepsin C” (Boehringer Ingelheim International GmbH, priority 2013, dated 2015)
